target: human APJ receptor (Homo sapiens (Human), UniProt P35414); assay: Intracellular cAMP accumulation assay (APJ hcAMP, HTRF); type: cell-based; settings: HEK293 cells stably expressing human APJ receptor; inhibition of forskolin-mediated cAMP production; read-out: Human APJ cAMP EC50 Potency range
Method in brief: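 HEK293 cells stably expressing human APJ, 5,000 per well, exposed to compound with […] IBMX and 2 μM forskolin for 30 minutes at room temperature. cAMP measured by HTRF after lysis and 60 min detection incubation. EC50 from sigmoidal variable-slope fits of inhibition of forskolin-induced cAMP, quantified against a cAMP standard curve.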

human APJ receptor, sequence (P35414 whole entry): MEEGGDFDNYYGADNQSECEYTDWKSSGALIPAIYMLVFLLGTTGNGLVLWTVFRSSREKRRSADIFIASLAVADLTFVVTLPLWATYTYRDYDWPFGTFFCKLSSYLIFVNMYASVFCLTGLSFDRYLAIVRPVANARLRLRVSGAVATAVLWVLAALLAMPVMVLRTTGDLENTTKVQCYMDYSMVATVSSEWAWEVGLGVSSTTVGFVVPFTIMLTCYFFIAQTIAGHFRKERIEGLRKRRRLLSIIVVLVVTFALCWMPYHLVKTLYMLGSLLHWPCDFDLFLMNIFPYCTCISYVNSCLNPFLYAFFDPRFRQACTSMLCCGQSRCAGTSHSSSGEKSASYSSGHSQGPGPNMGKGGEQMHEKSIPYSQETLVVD

Compared with `CCCCc1nc(O)c(-c2nnc(Cc3nnc(-c4ccc(Cl)cc4)o3)o2)c(O)c1-c1c(OC)cccc1OC` [Example 205, 6-butyl-3-(5-{[5-(4-chlorophenyl)-1,3,4-oxadiazol-2-yl]methyl}-1,3,4-oxadiazol-2-yl)-5-(2,6-dimethoxyphenyl)pyridine-2,4-diol], `CCNCc1[nH]c(=O)c(-c2nnc(Cc3ccc(Cl)cn3)o2)c(O)c1-c1c(OC)cccc1OC` [Example 230, 3-{5-[(5-chloropyridin-2-yl)methyl]-1,3,4-oxadiazol-2-yl}-5-(2,6-dimethoxyphenyl)-6-[(ethylamino)methyl]pyridine-2,4-diol] is lower in EC50: 10 to 100 nM for the first, 0.01 to 10 nM for the second.

same assay, conditions: HEK293 cells stably expressing human APJ receptor; inhibition of forskolin-mediated cAMP production; read-out: hAPJ cAMP EC50 (nM) Potency range

`CCCCc1nc(O)c(-c2nnc(CC(=O)NCCc3ccc(S(N)(=O)=O)cc3)o2)c(O)c1-c1c(OC)cccc1OC` [Example 257, 2-{5-[6-butyl-5-(2,6-dimethoxyphenyl)-2,4-dihydroxy-pyridin-3-yl]-1,3,4-oxadiazol-2-yl}-N-[2-(4-sulfamoylphenyl)ethyl]acetamide] and `CCCCc1nc(O)c(-c2nnc(CC(=O)NCc3ccc(Cl)cc3)o2)c(O)c1-c1c(OC)cccc1OC` [Example 266, 2-{5-[6-butyl-5-(2,6-dimethoxyphenyl)-2,4-dihydroxy-pyridin-3-yl]-1,3,4-oxadiazol-2-yl}-N-[(4-chlorophenyl)methyl]acetamide] fall in the same range of EC50: 0.01 to 10 nM for the first, 0.01 to 10 nM for the second.

`CCCCc1nc(O)c(-c2nnc(CNC(=O)c3ccccc3)o2)c(O)c1-c1cc(OC)ccc1OC` [Example 246, N-({5-[6-butyl-5-(2,5-dimethoxyphenyl)-2,4-dihydroxy-pyridin-3-yl]-1,3,4-oxadiazol-2-yl}methyl) benzamide] and `CCCCc1nc(O)c(-c2nnc(CC(=O)NCc3ncco3)o2)c(O)c1-c1c(OC)cccc1OC` [Example 256, 2-{5-[6-butyl-5-(2,6-dimethoxyphenyl)-2,4-dihydroxypyridin-3-yl]-1,3,4-oxadiazol-2-yl}-N-[(1,3-oxazol-2-yl)methyl] acetamide] fall in the same range of EC50: 0.01 to 10 nM for the first, 0.01 to 10 nM for the second.

Compound `CCCCc1nc(O)c(-c2nnc(CC(=O)NCc3nnc(C)o3)o2)c(O)c1-c1c(OC)cccc1OC` [Example 271, 2-{5-[6-butyl-5-(2,6-dimethoxyphenyl)-2,4-dihydroxypyridin-3-yl]-1,3,4-oxadiazol-2-yl}-N-[(5-methyl-1,3,4-oxadiazol-2-yl)methyl]acetamide] has an EC50 of 0.01 to 10 nM.

same assay, conditions: HEK293 cells stably expressing human APJ receptor; inhibition of forskolin-mediated cAMP production; read-out: hAPJ cAMP EC50 Potency range

First: CCCCc1nc(O)c(-c2nnc(Cc3cnn(-c4ccccc4)c3)o2)c(O)c1-c1c(OC)cccc1OC [Example 78, 6-butyl-5-(2,6-dimethoxyphenyl)-3-{5-[(1-phenyl-1H-pyrazol-4-yl)methyl]-1,3,4-oxadiazol-2-yl}pyridine-2,4-diol]
Second: CCCCc1nc(O)c(-c2nnc(Cc3csc(-c4ccccc4)n3)o2)c(O)c1-c1c(OC)cccc1OC [Example 46, 6-butyl-5-(2,6-dimethoxyphenyl)-3-{5-[(2-phenyl-1,3-thiazol-4-yl)methyl]-1,3,4-oxadiazol-2-yl}pyridine-2,4-diol]
The EC50 of the first is higher: 10 to 100 nM for the first, 0.01 to 10 nM for the second.

First: CCCCc1nc(O)c(-c2nnc(CC3CCCCC3)o2)c(O)c1-c1c(OC)cccc1OC [Example 67, 6-butyl-3-[5-(cyclohexylmethyl)-1,3,4-oxadiazol-2-yl]-5-(2,6-dimethoxyphenyl) pyridine-2,4-diol]
Second: CCCCc1nc(O)c(-c2nnc(CC3CCOCC3)o2)c(O)c1-c1c(OC)cccc1OC [Example 69, 6-butyl-5-(2,6-dimethoxyphenyl)-3-[5-(oxan-4-ylmethyl)-1,3,4-oxadiazol-2-yl]pyridine-2,4-diol]
The EC50 of the first is lower: 0.01 to 10 nM for the first, 10 to 100 nM for the second. The first is the more potent here.

`CCCCc1nc(O)c(-c2nnc(CCc3nc4ccccc4s3)o2)c(O)c1-c1c(OC)cccc1OC` [Example 82, 3-{5-[2-(1,3-benzothiazol-2-yl)ethyl]-1,3,4-oxadiazol-2-yl}-6-butyl-5-(2,6-dimethoxyphenyl) pyridine-2,4-diol] and `CCCCc1nc(O)c(-c2nnc(Cc3ccc(F)cc3)o2)c(O)c1-c1c(OC)cccc1OC` [Example 32, 6-butyl-5-(2,6-dimethoxyphenyl)-3-{5-[(4-fluorophenyl)methyl]-1,3,4-oxadiazol-2-yl}pyridine-2,4-diol] fall in the same range of EC50: 0.01 to 10 nM for the first, 0.01 to 10 nM for the second.

First: CCCCc1nc(O)c(-c2nnc(COc3ccc(Cl)c(Cl)c3)o2)c(O)c1-c1c(OC)cccc1OC [Example 50, 6-butyl-3-[5-(3,4-dichlorophenoxy-methyl)-1,3,4-oxadiazol-2-yl]-5-(2,6-dimethoxyphenyl) pyridine-2,4-diol]
Second: CCCCc1nc(O)c(-c2nnc(C(C)(C)c3ccc(Cl)c(Cl)c3)o2)c(O)c1-c1c(OC)cccc1OC [Example 62, 6-butyl-3-{5-[2-(3,4-dichlorophenyl)propan-2-yl]-1,3,4-oxadiazol-2-yl}-5-(2,6-dimethoxyphenyl) pyridine-2,4-diol]
The EC50 of the first is higher: 10 to 100 nM for the first, 0.01 to 10 nM for the second. The second is the more potent here.

Compared with `CCCCc1nc(O)c(-c2nnc(-c3cc(C)[nH]n3)o2)c(O)c1-c1c(OC)cccc1OC` [Example 19, 6-butyl-5-(2,6-dimethoxyphenyl)-3-[5-(5-methyl-1H-pyrazol-3-yl)-1,3,4-oxadiazol-2-yl]pyridine-2,4-diol], `CCCCc1nc(O)c(-c2nnc(Cc3cnccn3)o2)c(O)c1-c1c(OC)cccc1OC` [Example 21, 6-butyl-5-(2,6-dimethoxyphenyl)-3-[5-(pyrazin-2-ylmethyl)-1,3,4-oxadiazol-2-yl]pyridine-2,4-diol] is lower in EC50: 100 to 300 nM for the first, 0.01 to 10 nM for the second. The second is the more potent here.

`C=CCCc1nc(O)c(-c2nnc(Cc3noc4ccccc34)o2)c(O)c1-c1c(OC)cccc1OC` [Example 27, 3-[5-(1,2-benzoxazol-3-ylmethyl)-1,3,4-oxadiazol-2-yl]-6-(but-3-en-1-yl)-5-(2,6-dimethoxyphenyl) pyridine-2,4-diol] and `CCCCc1nc(O)c(-c2nnc(Cc3noc4ccccc34)o2)c(O)c1-c1c(CC)cccc1CC` [Example 226, 3-[5-(1,2-benzoxazol-3-ylmethyl)-1,3,4-oxadiazol-2-yl]-6-butyl-5-(2,6-diethylphenyl) pyridine-2,4-diol] fall in the same range of EC50: 0.01 to 10 nM for the first, 0.01 to 10 nM for the second.

Compared with `CCCCc1nc(O)c(-c2nnc(Cc3nnc(-c4ccncc4)o3)o2)c(O)c1-c1c(OC)cccc1OC` [Example 206, 6-butyl-5-(2,6-dimethoxyphenyl)-3-(5-{[5-(pyridin-4-yl)-1,3,4-oxadiazol-2-yl]methyl}-1,3,4-oxadiazol-2-yl)pyridine-2,4-diol], `CCCCc1nc(O)c(-c2nnc(Cc3cc(F)cc(C(F)(F)F)c3)o2)c(O)c1-c1c(OC)cccc1OC` [Example 57, 6-butyl-5-(2,6-dimethoxyphenyl)-3-(5-{[3-fluoro-5-(trifluoromethyl)phenyl]methyl}-1,3,4-oxadiazol-2-yl)pyridine-2,4-diol] is higher in EC50: 0.01 to 10 nM for the first, 10 to 100 nM for the second. The first is the more potent here.

First: CCOCc1nc(O)c(-c2nnc(Cn3nnc4ccccc43)o2)c(O)c1-c1c(OC)cccc1OC [Example 133, 3-[5-(1H-1,2,3-benzotriazol-1-ylmethyl)-1,3,4-oxadiazol-2-yl]-5-(2,6-dimethoxyphenyl)-6-(ethoxymethyl) pyridine-2,4-diol]
Second: CCOCc1nc(O)c(-c2nnc(Cn3ccnc3)o2)c(O)c1-c1c(OC)cccc1OC [Example 125, 5-(2,6-dimethoxyphenyl)-6-(ethoxymethyl)-3-[5-(1H-imidazol-1-ylmethyl)-1,3,4-oxadiazol-2-yl]pyridine-2,4-diol]
The EC50 of the first is lower: 0.01 to 10 nM for the first, 10 to 100 nM for the second. The first is the more potent here.

Compared with `CCCCc1nc(O)c(-c2nnc(C(C)(C)Cc3ccccc3)o2)c(O)c1-c1c(OC)cccc1OC` [Example 64, 6-butyl-5-(2,6-dimethoxyphenyl)-3-[5-(2-methyl-1-phenylpropan-2-yl)-1,3,4-oxadiazol-2-yl]pyridine-2,4-diol], `CCCCc1nc(O)c(-c2nnc(C(F)(F)c3ccccc3)o2)c(O)c1-c1c(OC)cccc1OC` [Example 24, 6-butyl-3-{5-[difluoro(phenyl)methyl]-1,3,4-oxadiazol-2-yl}-5-(2,6-dimethoxyphenyl) pyridine-2,4-diol] is higher in EC50: 0.01 to 10 nM for the first, 10 to 100 nM for the second.

First: CCOCc1nc(O)c(-c2nnc(CN3CCCC3=O)o2)c(O)c1-c1c(OC)cc(F)cc1OC [Example 215, 1-({5-[6-(ethoxymethyl)-5-(4-fluoro-2,6-dimethoxyphenyl)-2,4-dihydroxypyridin-3-yl]-1,3,4-oxadiazol-2-yl}methyl) pyrrolidin-2-one]
Second: CCCCc1nc(O)c(-c2nnc(CC(=O)OC(C)(C)C)o2)c(O)c1-c1c(OC)cccc1OC [Example 118, tert-butyl 2-{5-[6-butyl-5-(2,6-dimethoxyphenyl)-2,4-dihydroxypyridin-3-yl]-1,3,4-oxadiazol-2-yl}acetate]
The EC50 of the first is higher: 10 to 100 nM for the first, 0.01 to 10 nM for the second. The second is the more potent here.

Compared with `CCCCc1nc(O)c(-c2nnc(CC(=O)NCCC)o2)c(O)c1-c1c(OC)cccc1OC` [Example 189, 2-{5-[6-butyl-5-(2,6-dimethoxyphenyl)-2,4-dihydroxypyridin-3-yl]-1,3,4-oxadiazol-2-yl}-N-propylacetamide], `CCCCc1[nH]c(=O)c(-c2nnc(Cc3csc(C)n3)o2)c(O)c1-c1cccc(CO)c1` [Example 152, 6-butyl-4-hydroxy-5-[3-(hydroxymethyl)phenyl]-3-{5-[(2-methyl-1,3-thiazol-4-yl)methyl]-1,3,4-oxadiazol-2-yl}-1,2-dihydropyridin-2-one] is higher in EC50: 0.01 to 10 nM for the first, 10 to 100 nM for the second. The first is the more potent here.

same assay, conditions: hAPJ cAMP EC50 Potency range (nM), HEK293 cells stably expressing human APJ receptor; inhibition of forskolin-mediated cAMP production

`CCCCc1nc(O)c(-c2nnc(CC(=O)N3CCN(C)CC3)o2)c(O)c1-c1c(OC)cccc1OC` [Example 185, 2-{5-[6-butyl-5-(2,6-dimethoxyphenyl)-2,4-dihydroxypyridin-3-yl]-1,3,4-oxadiazol-2-yl}-1-(4-methylpiperazin-1-yl)ethan-1-one] and `CCCCc1nc(O)c(-c2nnc(CN(C)C(=O)OC(C)(C)C)o2)c(O)c1-c1c(OC)cccc1OC` [Example 121, tert-butyl N-({5-[6-butyl-5-(2,6-dimethoxyphenyl)-2,4-dihydroxypyridin-3-yl]-1,3,4-oxadiazol-2-yl}methyl)-N-methylcarbamate] fall in the same range of EC50: 10 to 100 nM for the first, 10 to 100 nM for the second.

— US10336739B2, “4-hydroxy-3-(heteroaryl)pyridine-2-one APJ agonists” (BRISTOL-MYERS SQUIBB COMPANY, priority 2015, dated 2019)
